The results in this text go back to patent publication US20110311593A1, “N-HYDROXYLATED AMIDINE-, GUANIDINE- AND/OR AMINOHYDRAZONE-TYPE PRODRUGS FOR APPLICATION ON THE SKIN” (priority 2009, published 2011).

This data set is described as follows: In vitro skin permeation profiles (permeation cell). The data set is classed as in vitro ADME, human. The protocol:
Comparison In Vitro Skin Permeation Profiles of Amanidine Prodrugs • System: in-vitro permeation cell (9 ml acceptor volume/1.539 cm^2 diffusion area, 32° C.) • Acceptor medium: phosphate buffer pH 5.5+0.1% NaN3 according to DAB 10 • Active ingredient: benzamidine, benzamidoxime (from Ex. 1) • Skin type: human full skin, ID 899 (belly person) • Vehicle: suspension in olive oil (2% by weight, 50 mg suspension per cell), applied to a circular nonwoven disk made of synthetic wool ([…] type I/20) and occlusively covered with a PSA film (silicone adhesive) as “over-plaster”.

For `N=C(N)c1ccccc1` [Benzamidine, benzamidine, reference compound], the permeated amount (0 h, human full skin, 2% by weight suspension in olive oil, acceptor phosphate buffer pH 5.5, 32° C.) stood at 0; the permeated amount (8 h, human full skin, 2% by weight suspension in olive oil, acceptor phosphate buffer pH 5.5, 32° C.) worked out at 2.24; the permeated amount (24 h, human full skin, 2% by weight suspension in olive oil, acceptor phosphate buffer pH 5.5, 32° C.) worked out at 13.7; the permeated amount (32 h, human full skin, 2% by weight suspension in olive oil, acceptor phosphate buffer pH 5.5, 32° C.) came to 21.2; the permeated amount (48 h, human full skin, 2% by weight suspension in olive oil, acceptor phosphate buffer pH 5.5, 32° C.) came to 41.3.

Turning to `NC(=NO)c1ccccc1` [Benzamidinoxime, Benzamidoxime], the “comparison of the permeated amounts of benzamidine and benzamidoxime” value is “advantage of the benzamidoxime being clearly visible”. In addition, the permeated amount (female, human, 0 h, 2 % by weight, pH 5.5) is listed as 0. For the setting “female, human, 8 h, 2 % by weight, pH 5.5”, this molecule came in with a permeated amount of 50.2. Further, the permeated amount (female, human, 24 h, 2 % by weight, pH 5.5) was determined as 235. Moreover, the permeated amount (female, human, 32 h, 2 % by weight, pH 5.5) is 315. For the same molecule, the permeated amount (female, human, 48 h, 2 % by weight, pH 5.5) came to 403.
